Measured values reported in patent US10952992B2, “Methods of treating intraocular pressure with activators of Tie-2” (Aerpio Pharmaceuticals, Inc., priority 2015, dated 2021).
“And” between values parts separate entries of the source, which are not always exact repeats. Equal values may be shown once. Where a name gives a salt, the structure may show the parent alone.

Assay: Example 2 iris, retina, choroid and cornea tissue concentrations
Format: in vivo, male New Zealand White rabbits
Details: for Choroid Conc. OS / Choroid Conc. OD: choroid homogenate; for Choroid Conc. OS / Choroid tissue Conc. OS / Cornea Conc. OS / Cornea tissue Conc. OS / Iris Conc. OS / Iris tissue Conc. OS / Retina Conc. OS / Retina tissue Conc. OS: left eye; for Choroid Conc. OS / Choroid Conc. OD / Choroid tissue Conc. OS / Choroid tissue Conc. OD / Cornea Conc. OS / Cornea Conc. OD / Cornea tissue Conc. OS / Cornea tissue Conc. OD / Iris Conc. OS / Iris Conc. OD / Iris tissue Conc. OS / Iris tissue Conc. OD / Retina Conc. OS / Retina Conc. OD / Retina tissue Conc. OS / Retina tissue Conc. OD: individual animals; for Choroid Conc. OS / Choroid Conc. OD / Choroid tissue Conc. Avg. / Choroid tissue Conc. OS / Choroid tissue Conc. OD / Cornea Conc. OS / Cornea Conc. OD / Cornea tissue Conc. Avg. / Cornea tissue Conc. OS / Cornea tissue Conc. OD / Iris Conc. OS / Iris Conc. OD / Iris tissue Conc. Avg. / Iris tissue Conc. OS / Iris tissue Conc. OD / Retina Conc. OS / Retina Conc. OD / Retina tissue Conc. Avg. / Retina tissue Conc. OS / Retina tissue Conc. OD: intravitreal 2.5 mg/eye (~1.55 mg/kg), Group 4; for Choroid Conc. OD / Choroid tissue Conc. OD / Cornea Conc. OD / Cornea tissue Conc. OD / Iris Conc. OD / Iris tissue Conc. OD / Retina Conc. OD / Retina tissue Conc. OD: right eye; for Choroid tissue Conc. Avg. / Cornea tissue Conc. Avg. / Iris tissue Conc. Avg. / Retina tissue Conc. Avg.: average; for Cornea Conc. OS / Cornea Conc. OD: cornea homogenate; for Iris Conc. OS / Iris Conc. OD: iris homogenate; for Retina Conc. OS / Retina Conc. OD: retina homogenate
Method: To measure the concentration of Compound 1 in plasma and ocular tissues following topical ocular, subcutaneous, and intravitreal administration, New Zealand White rabbits were administered Compound 1, and plasma and ocular samples were collected at pre-determined time points. Compound 1 formulations were prepared fresh on each day of dosing.
Ocular tissue samples from both eyes of each animal were collected and weights were recorded. Plasma and ocular tissue sample concentrations of Compound 1 were determined by LC-MS/MS.
Animals were anesthetized for ocular (topical) and intravitreal dosing following the 12IA7 IACUC protocol. Each rabbit received a bolus dose of test formulation either via topical ocular administration 3 times daily on Days 1 and 2 (at 0, 6, and 12 hours), and once on Day 3 (at 0 hours) into both eyes; via intravitreal administration into both eyes once on Day 1 (at 0 hours); or via subcutaneous administration 2 times daily on Days 1 and 2 (at 0 and 8 hours) and once daily on Day 3 (at 0 hours). Doses were given within an approximately 1 hour window each day where applicable.
On Day 1, for intravitreal administration, or on Day 3, for topical ocular and subcutaneous administration, at the appropriate ocular tissue collection time points, animals were euthanized and both eyes were enucleated immediately. Following enucleation, each eye was rinsed with phosphate-buffered saline. Ocular tissue samples from both eyes of each animal were collected at predetermined time points and weights were recorded. All the samples were frozen immediately on dry ice, and stored at −60° C. to −80° C. pending bioanalysis.
An LC-MS/MS method was developed for the determination of Compound 1 in rabbit aqueous tissues (plasma, aqueous and vitreous humor) and solid ocular tissue samples. A pre-study standard curve was analyzed to determine the specificity, range, and lower limit of quantitation of the method. Plasma and tissue homogenate study samples were extracted and analyzed. All the samples were treated identically to the standards.
One eight-point standard curve was used in each analytical batch. To be accepted, each batch must have had at least five of eight standards with accuracy within ±20% of nominal, except at the lower limit of quantification (LLOQ), where ±25% was acceptable.

[1] = Iris, 4 hr, subcutaneous 5 mg/kg/dose (Group 2), sodium salt
[2] = Iris, 4 hr, topical ocular 1.2 mg/eye (Group 1), sodium salt
[3] = Retina, 0.5 hr, subcutaneous 5 mg/kg/dose (Group 2), sodium salt
[4] = Retina, 0.5 hr, topical ocular 1.2 mg/eye (Group 1), sodium salt
[5] = Retina, 1 hr, subcutaneous 5 mg/kg/dose (Group 2), sodium salt
[6] = Retina, 1 hr, topical ocular 1.2 mg/eye (Group 1), sodium salt
[7] = Retina, 2 hr, subcutaneous 5 mg/kg/dose (Group 2), sodium salt
[8] = Retina, 4 hr, subcutaneous 5 mg/kg/dose (Group 2), sodium salt
[9] = Retina, 4 hr, topical ocular 1.2 mg/eye (Group 1), sodium salt

SMILES: COC(=O)N[C@@H](Cc1ccccc1)C(=O)N[C@@H](Cc1ccc(NS(=O)(=O)O)cc1)c1csc(-c2cccs2)n1 [Compound 1 sodium salt]
- Average (Iris, 2 hr, subcutaneous 5 mg/kg/dose (Group 2), sodium salt): 29.7 ng/g
- Average (Iris, 2 hr, topical ocular 1.2 mg/eye (Group 1), sodium salt): 51.9 ng/g
- Average [1]: 30.4 ng/g
- Conc. (ng/g) OD [1]: 33.8 ng/g
- Conc. (ng/g) OS [1]: 34.1 ng/g
- Conc. (ng/mL) OD [1]: 2.12 ng/mL and 3.07 ng/mL
- Average [2]: 261 ng/g
- Conc. (ng/g) OD [2]: 32.7 ng/g and 27.9 ng/g
- Conc. (ng/g) OS [2]: 30.7 ng/g
- Conc. (ng/mL) OD [2]: 2.97 ng/mL and 2.54 ng/mL
- Average [3]: 40.5 ng/g
- Conc. (ng/g) OD [3]: 30.5 ng/g and 34.9 ng/g
- Conc. (ng/g) OS [3]: 48.0 ng/g and 48.7 ng/g
- Conc. (ng/mL) OD [3]: 2.77 ng/mL and 3.17 ng/mL
- Conc. (ng/mL) OS [3]: 4.36 ng/mL and 4.43 ng/mL
- Average [4]: 25.6 ng/g
- Conc. (ng/g) OS [4]: 33.7 ng/g and 33.1 ng/g
- Conc. (ng/mL) OS [4]: 3.06 ng/mL and 3.01 ng/mL
- Average [5]: 32.6 ng/g
- Conc. (ng/g) OD [5]: 22.4 ng/g and 18.3 ng/g
- Conc. (ng/g) OS [5]: 43.2 ng/g and 46.4 ng/g
- Conc. (ng/mL) OD [5]: 2.04 ng/mL and 1.66 ng/mL
- Conc. (ng/mL) OS [5]: 3.93 ng/mL and 4.22 ng/mL
- Average [6]: 59.2 ng/g
- Conc. (ng/g) OD [6]: 76.9 ng/g and 85.9 ng/g
- Conc. (ng/mL) OD [6]: 6.99 ng/mL and 7.81 ng/mL
- Average [7]: 16.4 ng/g
- Conc. (ng/g) OD [7]: 15.0 ng/g
- Conc. (ng/g) OS [7]: 17.8 ng/g
- Average (Retina, 2 hr, topical ocular 1.2 mg/eye (Group 1), sodium salt): 48.3 ng/g
- Average [8]: 19.7 ng/g
- Conc. (ng/g) OD [8]: 19.7 ng/g
- Conc. (ng/mL) OS [8]: BLOQ
- Average [9]: 405 ng/g
- Conc. (ng/g) OS [9]: 64.8 ng/g
- Choroid Conc. OS (6.0 hr): 105000 ng/mL and 44000 ng/mL
- Choroid Conc. OD (6.0 hr): 164000 ng/mL and 31500 ng/mL
- Choroid Conc. OS (24 hr): 9890 ng/mL and 10400 ng/mL
- Choroid Conc. OD (24 hr): 11800 ng/mL and 18400 ng/mL
- Choroid Conc. OS (48 hr): 3740 ng/mL and 2790 ng/mL
- Choroid Conc. OD (48 hr): 3480 ng/mL and 4040 ng/mL
- Choroid Conc. OS (72 hr): 282 ng/mL and 290 ng/mL
- Choroid Conc. OD (72 hr): 107 ng/mL and 311 ng/mL
- Choroid tissue Conc. Avg. (6.0 hr): 947375 ng/g
- Choroid tissue Conc. OS (6.0 hr): 1155000 ng/g and 484000 ng/g
- Choroid tissue Conc. OD (6.0 hr): 1804000 ng/g and 346500 ng/g
- Choroid tissue Conc. Avg. (24 hr): 138848 ng/g
- Choroid tissue Conc. OS (24 hr): 108790 ng/g and 114400 ng/g
- Choroid tissue Conc. OD (24 hr): 129800 ng/g and 202400 ng/g
- Choroid tissue Conc. Avg. (48 hr): 38638 ng/g
- Choroid tissue Conc. OS (48 hr): 41140 ng/g and 30690 ng/g
- Choroid tissue Conc. OD (48 hr): 38280 ng/g and 44440 ng/g
- Choroid tissue Conc. Avg. (72 hr): 2723 ng/g
- Choroid tissue Conc. OS (72 hr): 3102 ng/g and 3190 ng/g
- Choroid tissue Conc. OD (72 hr): 1177 ng/g and 3421 ng/g
- Cornea Conc. OS (6.0 hr): 6940 ng/mL and 6030 ng/mL
- Cornea Conc. OD (6.0 hr): 6300 ng/mL and 6710 ng/mL
- Cornea Conc. OS (24 hr): 1560 ng/mL and 1930 ng/mL
- Cornea Conc. OD (24 hr): 2180 ng/mL and 2940 ng/mL
- Cornea Conc. OS (48 hr): 662 ng/mL and 487 ng/mL
- Cornea Conc. OD (48 hr): 1050 ng/mL and 538 ng/mL
- Cornea Conc. OS (72 hr): 20.1 ng/mL and 58.1 ng/mL
- Cornea Conc. OD (72 hr): 18.0 ng/mL and 56.9 ng/mL
- Cornea tissue Conc. Avg. (6.0 hr): 71445 ng/g
- Cornea tissue Conc. OS (6.0 hr): 76340 ng/g and 66330 ng/g
- Cornea tissue Conc. OD (6.0 hr): 69300 ng/g and 73810 ng/g
- Cornea tissue Conc. Avg. (24 hr): 23678 ng/g
- Cornea tissue Conc. OS (24 hr): 17160 ng/g and 21230 ng/g
- Cornea tissue Conc. OD (24 hr): 23980 ng/g and 32340 ng/g
- Cornea tissue Conc. Avg. (48 hr): 7527 ng/g
- Cornea tissue Conc. OS (48 hr): 7282 ng/g and 5357 ng/g
- Cornea tissue Conc. OD (48 hr): 11550 ng/g and 5918 ng/g
- Cornea tissue Conc. Avg. (72 hr): 421 ng/g
- Cornea tissue Conc. OS (72 hr): 221 ng/g and 639 ng/g
- Cornea tissue Conc. OD (72 hr): 198 ng/g and 626 ng/g
- distribution among iris, retina, choroid, cornea (FIG. 15) (intravitreal 1.55 mg/kg, sodium salt): generally higher in the retina and choroid
- Iris Conc. OS (6.0 hr): 34000 ng/mL and 30600 ng/mL
- Iris Conc. OD (6.0 hr): 35500 ng/mL and 27800 ng/mL
- Iris Conc. OS (24 hr): 7610 ng/mL and 25900 ng/mL
- Iris Conc. OD (24 hr): 6890 ng/mL and 11000 ng/mL
- Iris Conc. OS (48 hr): 1960 ng/mL and 2780 ng/mL
- Iris Conc. OD (48 hr): 2380 ng/mL and 1820 ng/mL
- Iris Conc. OS (72 hr): 225 ng/mL and 59.5 ng/mL
- Iris Conc. OD (72 hr): 169 ng/mL and 110 ng/mL
- Iris tissue Conc. Avg. (6.0 hr): 351725 ng/g
- Iris tissue Conc. OS (6.0 hr): 374000 ng/g and 336600 ng/g
- Iris tissue Conc. OD (6.0 hr): 390500 ng/g and 305800 ng/g
- Iris tissue Conc. Avg. (24 hr): 141350 ng/g
- Iris tissue Conc. OS (24 hr): 83710 ng/g and 284900 ng/g
- Iris tissue Conc. OD (24 hr): 75790 ng/g and 121000 ng/g
- Iris tissue Conc. Avg. (48 hr): 24585 ng/g
- Iris tissue Conc. OS (48 hr): 21560 ng/g and 30580 ng/g
- Iris tissue Conc. OD (48 hr): 26180 ng/g and 20020 ng/g
- Iris tissue Conc. Avg. (72 hr): 1550 ng/g
- Iris tissue Conc. OS (72 hr): 2475 ng/g and 655 ng/g
- Iris tissue Conc. OD (72 hr): 1859 ng/g and 1210 ng/g
- Retina Conc. OS (6.0 hr): 41100 ng/mL and 82300 ng/mL
- Retina Conc. OD (6.0 hr): 39200 ng/mL and 119000 ng/mL
- Retina Conc. OS (24 hr): 28000 ng/mL and 3700 ng/mL
- Retina Conc. OD (24 hr): 29200 ng/mL and 35200 ng/mL
- Retina Conc. OS (48 hr): 6030 ng/mL and 6530 ng/mL
- Retina Conc. OD (48 hr): 6490 ng/mL and 7360 ng/mL
- Retina Conc. OS (72 hr): 370 ng/mL and 484 ng/mL
- Retina Conc. OD (72 hr): 750 ng/mL and 598 ng/mL
- Retina tissue Conc. Avg. (6.0 hr): 774400 ng/g
- Retina tissue Conc. OS (6.0 hr): 452100 ng/g and 905300 ng/g
- Retina tissue Conc. OD (6.0 hr): 431200 ng/g and 1309000 ng/g
- Retina tissue Conc. Avg. (24 hr): 355850 ng/g
- Retina tissue Conc. OS (24 hr): 308000 ng/g and 407000 ng/g
- Retina tissue Conc. OD (24 hr): 321200 ng/g and 387200 ng/g
- Retina tissue Conc. Avg. (48 hr): 72628 ng/g
- Retina tissue Conc. OS (48 hr): 66330 ng/g and 71830 ng/g
- Retina tissue Conc. OD (48 hr): 71390 ng/g and 80960 ng/g
- Retina tissue Conc. Avg. (72 hr): 6056 ng/g
- Retina tissue Conc. OS (72 hr): 4070 ng/g and 5324 ng/g
- Retina tissue Conc. OD (72 hr): 8250 ng/g and 6578 ng/g
- distribution among iris, retina, choroid, cornea (FIG. 13) (subcutaneous 5 mg/kg/dose, sodium salt): generally higher in the iris and choroid
- ocular tissue concentrations, sodium salt solution compared to free acid suspension (subcutaneous and intravitreal administration): generally higher
- distribution among iris, retina, choroid, cornea (FIG. 12) (topical ocular administration at 0.7 mg/kg/dose): generally higher in the cornea
